{"source": "patent US5824072A", "about": "“Biocompatible ocular implants” (Oculex Pharmaceuticals, Inc., priority 1996, dated 1998)", "key": {"[1]": {"details": "rabbit, in vivo", "protocol": "One eye of each of six rabbits was implanted at the pars plana with methotrexate (MTX)-lactic acid microspheres and in one eye of another six rabbits with hydrocortisone, acetate-lactic acid microspheres.\nA 40% (by weight) mixture of MIX and hydrocortisone with polylactate polymer were solubilized in chloroform and ethanol (Table 1). Coacervation into microcapsules tool place in 500 ml of a 5% polyvinyl alcohol aqueous solution with moderate to high speed stirring. Evaporation was performed under light vacuum with constant stirring for an additional 8 hrs. The resulting microspheres measuring 0.1 to 0.5 mm were selected and dried in vacuum for an additional 24 to 48 hours. Approximately 25 microcapsules were implanted at the pars plana."}, "[2]": {"details": "rabbit, in vivo", "protocol": "A 40% (by weight) of MTX and hydrocortisone and polylactate polymer were mixed under moltened conditions (Table 2). The resulting mixture was plated into a thin layer of approximately 0.4 to 0.5 mm in thickness and cooled overnight at room temperature. A plaque measuring approximately 3×4 mm was fashioned from the layer and was surgically placed into the pars plana.\nPlaques of MTX and hydrocortsone were given to one eye of each of 3 animals at the pars plana and over the vitreous base following scleral resection.", "remark": "listed apart in the source"}, "[3]": {"assay": "In vitro drug release from polyurethane sheets", "format": "physicochemical", "quoted_text": "After drying of the mixtures, implants were then cut from the resulting sheets of drug-filled polymer affixed to the release liner. The drug-release behavior of the polymeric, drug-containing sheets was then tested. The release liner was removed from an implant sheet and a weighed sample of the sheet added to a solution containing four parts by weight ethanol and six parts by weight of deionized water at 37° C. with slow stirring. The appearance of the dissolved drug was followed as a function of time by spectrophotometry."}}, "note": "Like-named read-outs stand apart in the source and are kept apart here."}
{"smiles": "C[C@]12CCC(=O)C=C1CC[C@@H]1[C@@H]2[C@@H](O)C[C@@]2(C)[C@H]1CC[C@]2(O)C(=O)CO", "note": "[Hydrocortisone, hydrocortisone]", "values": [{"measurement": "drug concentration, RE PC", "setting": "[1]; 10080 min", "value": 0, "unit": "ng/mL"}, {"measurement": "drug concentration, RE PC", "setting": "[1]; 20160 min", "value": 0, "unit": "ng/mL"}, {"measurement": "drug concentration, RE PC", "setting": "[1]; 30240 min", "value": 0, "unit": "ng/mL"}, {"measurement": "drug concentration, RE PC", "setting": "[1]; 40320 min", "value": 0, "unit": "ng/mL"}, {"measurement": "drug concentration, RE PC", "setting": "[1]; 50400 min", "value": 0, "unit": "ng/mL"}, {"measurement": "drug concentration, RE PC", "setting": "[1]; 60480 min", "value": 0, "unit": "ng/mL"}, {"measurement": "drug concentration, RE PC", "setting": "[2]; 43200 min", "value": 0, "unit": "ng/mL"}, {"measurement": "drug concentration, RE PC", "setting": "[2]; 86400 min", "value": 0, "unit": "ng/mL"}, {"measurement": "drug concentration, RE PC", "setting": "[2]; 129600 min", "value": 0, "unit": "ng/mL"}]}
{"smiles": "CN(Cc1cnc2nc(N)nc(N)c2n1)c1ccc(C(=O)N[C@@H](CCC(=O)O)C(=O)O)cc1", "note": "[MTX, methotrexate]", "values": [{"measurement": "drug concentration, LE PC", "setting": "[1]; 10080 min", "value": 0, "unit": "ng/mL"}, {"measurement": "drug concentration, LE PC", "setting": "[1]; 20160 min", "value": 0, "unit": "ng/mL"}, {"measurement": "drug concentration, LE PC", "setting": "[1]; 30240 min", "value": 0, "unit": "ng/mL"}, {"measurement": "drug concentration, LE PC", "setting": "[1]; 40320 min", "value": 0, "unit": "ng/mL"}, {"measurement": "drug concentration, LE PC", "setting": "[1]; 50400 min", "value": 0, "unit": "ng/mL"}, {"measurement": "drug concentration, LE PC", "setting": "[1]; 60480 min", "value": 0, "unit": "ng/mL"}, {"measurement": "drug concentration, LE PC", "setting": "[2]; 43200 min", "value": 0, "unit": "ng/mL"}, {"measurement": "drug concentration, LE PC", "setting": "[2]; 86400 min", "value": 0, "unit": "ng/mL"}, {"measurement": "drug concentration, LE PC", "setting": "[2]; 129600 min", "value": 0, "unit": "ng/mL"}]}
{"smiles": "C[C@@H]1C[C@H]2[C@@H]3CCC4=CC(=O)C=C[C@]4(C)[C@@]3(F)[C@@H](O)C[C@]2(C)[C@@]1(O)C(=O)CO", "note": "[dexamethasone]", "values": [{"measurement": "drug released from sheets", "setting": "[3]; Example 1 polyurethane/dexamethasone sheet, ethanol/deionized water 4:6 by weight, 37° C., within 4 hrs", "value": "more than 50%"}]}
{"smiles": "Nc1nc(O)c2ncn(COC(CO)CO)c2n1", "note": "[gancyclovir]", "values": [{"measurement": "drug released from sheets", "setting": "[3]; Example 2 polyurethane/gancyclovir sheet, in vitro as described above, after the first 2 hrs", "value": "more than 60%"}]}
